Experimental data: patent US20220144812A1, “QUINOLINE DERIVATIVES AND THEIR USE FOR THE TREATMENT OF CANCER” (Epizyme, Inc., priority 2019, published 2022)
Read-outs that look alike come from different tables or passages of the source.

Legend:
CREBBP (1084-1701) = biological target: T1, CREBBP (1084-1701) (Homo sapiens, UniProt Q92793); experiment: Biochemical assay for CREBBP (1084-1701), SAMDI; conditions: SAMDI, read-out: CREBBP Biochemistry IC50
T1 construct: measured in the following biochemical assay using CREBBP (1084-1701); purchased
In short: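 Acetyltransferase activity measured by SAMDI mass spectrometry after capture on biochip. Enzyme sat with compound 30 min at RT before acetyl-CoA and biotinylated H3 11-25 (K14R, K23R) peptide were added for 30 min at RT. Formic acid quench, bicarbonate neutralisation; IC50 values reported.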

647V cells = experiment: High throughput proliferation (HTP) assay; assay type: cell-based; conditions: high throughput proliferation, read-out: CREBBP HTP IC50
In short: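 Proliferation IC50 (micromolar) derived from a 7-day CellTiter-Glo viable-cell readout in 647V cells exposed, in triplicate, to rising compound concentrations; cells grown in DMEM plus 15% heat-inactivated FBS at 37° C under 5% CO2.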

[1] = test system: H3K18Ac in HB-CLS-2 cells; experiment: H3K18AC in-cell western (ICW) assay; assay type: cell-based; conditions: H3K18Ac in-cell western, read-out: CREBBP ICW IC50
In short: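 In-cell western: after methanol fixation, blocking, overnight 4° C anti-H3K18Ac staining, then 800CW secondary plus DRAQ5 for DNA content, integrated intensities were scanned at 800 and 700 nm. Before this, compound exposure lasted 2 hr at 37° C in HB-CLS-2 cells plated 16–24 hours earlier. Values expressed as IC50 (μM).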

EP300 (P300(1048-1664)) = biological target: T2, EP300 (P300(1048-1664)) (Homo sapiens, UniProt Q09472); experiment: Biochemical assay for EP300, SAMDI; conditions: EP300, SAMDI; read-out: EP300 Biochemistry IC50
T2 construct: P300(1048-1664)
T2 sequence (Q09472 1048-1664): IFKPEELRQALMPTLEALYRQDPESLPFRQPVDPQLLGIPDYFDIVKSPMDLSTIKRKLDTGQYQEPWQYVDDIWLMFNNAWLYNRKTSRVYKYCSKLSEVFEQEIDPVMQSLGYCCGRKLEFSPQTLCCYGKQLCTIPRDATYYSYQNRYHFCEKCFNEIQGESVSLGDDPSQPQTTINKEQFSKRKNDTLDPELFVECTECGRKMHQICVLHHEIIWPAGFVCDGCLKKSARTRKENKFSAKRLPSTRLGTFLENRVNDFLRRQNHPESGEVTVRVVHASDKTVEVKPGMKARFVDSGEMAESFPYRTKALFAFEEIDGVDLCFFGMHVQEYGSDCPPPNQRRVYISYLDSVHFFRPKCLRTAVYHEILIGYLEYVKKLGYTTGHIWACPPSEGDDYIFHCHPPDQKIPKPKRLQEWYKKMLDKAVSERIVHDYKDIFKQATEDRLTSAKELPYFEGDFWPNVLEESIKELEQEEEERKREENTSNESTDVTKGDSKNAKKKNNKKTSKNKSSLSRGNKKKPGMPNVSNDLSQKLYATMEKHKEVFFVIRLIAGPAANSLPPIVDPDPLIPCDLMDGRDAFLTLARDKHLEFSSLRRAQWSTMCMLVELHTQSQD
Excerpt: The following example describes materials and methods relating to a biochemical assay for EP300. IC50 values (micromolar (μM)) are summarized in Table 1, Table 2, and Table 3 under the column labeled: “EP300 Biochemistry IC50 (micromolar).”

[2] = Homo sapiens, 647-V, 647V cells

T1 sequence (Q92793 1084-1701): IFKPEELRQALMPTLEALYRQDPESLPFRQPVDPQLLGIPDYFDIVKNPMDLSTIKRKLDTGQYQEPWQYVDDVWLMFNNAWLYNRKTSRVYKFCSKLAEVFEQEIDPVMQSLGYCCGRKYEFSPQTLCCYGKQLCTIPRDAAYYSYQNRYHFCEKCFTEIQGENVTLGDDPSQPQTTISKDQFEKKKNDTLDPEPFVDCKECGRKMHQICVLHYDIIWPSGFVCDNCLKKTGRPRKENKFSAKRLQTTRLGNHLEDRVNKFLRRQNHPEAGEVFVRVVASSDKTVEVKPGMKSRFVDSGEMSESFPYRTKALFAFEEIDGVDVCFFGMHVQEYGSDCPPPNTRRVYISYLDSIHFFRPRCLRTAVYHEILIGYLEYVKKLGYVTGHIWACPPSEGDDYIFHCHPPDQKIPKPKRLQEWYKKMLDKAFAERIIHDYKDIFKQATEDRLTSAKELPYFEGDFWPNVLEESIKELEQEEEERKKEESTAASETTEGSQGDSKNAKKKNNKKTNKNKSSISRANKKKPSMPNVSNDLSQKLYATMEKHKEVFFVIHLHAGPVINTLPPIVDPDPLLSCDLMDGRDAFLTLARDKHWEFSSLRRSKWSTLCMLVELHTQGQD

IC50 (CREBBP (1084-1701)) [nM] | IC50 [1] [nM] | IC50 (EP300 (P300(1048-1664))) [nM] | IC50 ([1]; HB-CLS-2 cells) [nM] | SMILES | IC50 (647V cells; Homo sapiens, 647-V) [nM] | IC50 (647V cells) [nM] | IC50 (647V cells; [2]) [nM]
22 | 34 | 5 |  | CCn1ncc(CN(C)C(=O)c2nc(-c3ccc(OCCCNC)c(C)c3Cl)nc3ccc(Cl)cc23)c1C [Compound 2] | 17 |  | 
34 | 330 | 12 |  | CCn1ncc(CN(C)C(=O)c2nc(-c3ccc(O[C@@H]4CNC[C@H]4O)cc3Cl)nc3ccc(Cl)cc23)c1C [Compound 38] | 230 |  | 
14100 | 18400 | 5200 |  | CCn1nc(C)c(CN(C)C(=O)c2cc(-c3ccc(NCCNC)c(C)n3)nc3ccc(Cl)cc23)c1C [Compound 557] | 6800 |  | 
180 | 1300 | 400 |  | CCn1ncc(CN(C)C(=O)c2nc(-c3cccc(Cl)c3)nc3c(CNC)cc(Cl)cc23)c1C [Compound 85] | 1300 |  | 
22 | 93 | 8.4 |  | CCn1ncc(CN(C)C(=O)c2nc(-c3cc4[nH]ncc4cc3C)nc3ccc(Cl)cc23)c1C [Compound 10] | 77 |  | 
18.8 | 49 | 9.9 |  | CCn1ncc(CN(C)C(=O)c2nc(-c3cc(C)nc(NCCN(C)C)c3)nc3ccc(Cl)cc23)c1C [Compound 470] |  | 25.4 | 
52000 | 13000 | 30000 |  | CCn1ncc(CN(C)C(=O)c2nc(-c3ccc(C(=O)NC)c(C)c3)nc3ccc(Cl)cc23)c1C [Compound 164] | 9800 |  | 
24900 | 20000 | 12500 |  | CCn1ncc(CN(C)C(=O)c2nc(-c3cc4c(N)nn(C)c4cc3C)nc3ccc(Cl)cc23)c1C [Compound 433] | 2220 |  | 
141000 |  | 100000 | 20000 | CCn1ncc(CN(C)C(=O)c2nc(N3CCn4cc(C)nc4C3)nc3ccc(Cl)cc23)c1C [Compound 220] |  |  | 20000
10 | 120 | 7.7 |  | CCn1ncc(CN(C)C(=O)c2nc(-c3cc(C)cc(NC(=O)CNC)c3)nc3ccc(Cl)cc23)c1C [Compound 13] | 110 |  | 
≥ 50000 | 20000 | 34200 |  | CCn1ncc(C(=O)N(C)Cc2cc(-c3ccc(NCCNC)c(C)n3)nc3ccc(Cl)cc23)c1C [Compound 467] | 5580 |  | 
56 | 230 | 12 |  | CCn1ncc(CN(C)C(=O)c2cc(-c3ccc(NCCNC)cn3)nc3ccc(Cl)cc23)c1C [Compound 30] | 310 |  | 
69 | 380 | 340 |  | CCn1ncc(CN(C)C(=O)c2nc(-c3ccc(OCCNC(C)=O)c(C)c3)nc3ccc(Cl)cc23)c1C [Compound 43] | 460 |  | 
88.7 | 1060 | 88.6 |  | CCn1ncc(CN(C)C(=O)c2cc(-c3ccc(NC4CNCC4(F)F)c(C)n3)nc3ccc(Cl)cc23)c1C (stereo not drawn) [Compound 538] | 1730 |  | 
8540 | 6820 | 8960 |  | CNCCNc1ccc(-c2cc(C(=O)N(C)Cc3cncn3C)c3cc(Cl)ccc3n2)nc1C [Compound 543] | 2260 |  | 
440 | 710 | 240 |  | CCn1ncc(CN(C)C(=O)c2cc(-c3cccc(N)n3)nc3ccc(Cl)cc23)c1C [Compound 63] | 1500 |  | 
16 |  | 7.5 | 120 | CCn1ncc(CN(C)C(=O)c2nc(-c3ccc(NC4CCOCC4)c(C)c3)nc3ccc(Cl)cc23)c1C [Compound 387] |  |  | 88
34.9 | 240 | 12.4 |  | CCc1ncc(CN(C)C(=O)c2cc(-c3ccc(NC4CN(C(C)=O)C4)c(C)n3)nc3ccc(Cl)cc23)n1C [Compound 549] | 150 |  | 

IC50 (CREBBP (1084-1701)) [nM] | IC50 [1] [nM] | IC50 (EP300 (P300(1048-1664))) [nM] | IC50 ([1]; HB-CLS-2 cells) [nM] | SMILES | IC50 (647V cells; Homo sapiens, 647-V) [nM] | IC50 (647V cells) [nM] | IC50 (647V cells; [2]) [nM]
16 | 81.4 | 4 |  | CCn1ncc(CN(C)C(=O)c2nc(-c3cc(C)c4c(N)n[nH]c4c3)nc3ccc(COC)cc23)c1C [Compound 524] | 163 |  | 
50.3 | 154 | 12.5 |  | CCn1ncc(CN(C)C(=O)c2cc(-c3cc4[nH]cnc4c(C)n3)nc3ccc(COC)cc23)c1C [Compound 530] | 248 |  | 
37.5 | 816 | 11.3 |  | CCc1ncc(CN(C)C(=O)c2nc(-c3cc(C)cc(NC4CNC4)c3)nc3ccc(Cl)cc23)n1C [Compound 566] | 338 |  | 
5500 |  | 1400 | 6100 | CCn1ncc(CN(C)C(=O)c2cc(-c3cc(C)c(OCCNC)cn3)nc3ccc(Cl)cc23)c1C [Compound 410] |  |  | 2800
12 | 58.3 | 4.1 |  | CCn1ncc(CN(C)C(=O)c2nc(-c3cc4c(N)n[nH]c4cc3C)nc3ccc(Br)cc23)c1C [Compound 535] | 58.1 |  | 
30.3 | 294 | 14 |  | CCc1noc(C(C)N(C)C(=O)c2nc(-c3ccc(NCCN(C)C)c(C)c3)nc3ccc(Cl)cc23)c1C (stereo not drawn) [Compound 606] | 80.7 |  | 
593 | 838 | 2050 |  | CCn1ncc(CN(C)C(=O)c2cc(-c3ccc(NCCNC)c(C)n3)nc3ccc(Cl)cc23)c1COC [Compound 559] | 1240 |  | 
44.5 | 273 | 221 |  | CCn1ncc(CN(C)C(=O)c2cc(-c3ccc(NCCNC)c(OC)c3)nc3ccc(Cl)cc23)c1C [Compound 584] | 165 |  | 
38000 | 20000 | 19300 |  | CCn1ncc(CN(C)C(=O)c2nc(-c3ccc(OCCNC)c(Cl)c3)nc3ccc(CN(C)C)cc23)c1C [Compound 464] | 2050 |  | 
36.2 | 72.6 | 28.5 |  | Cc1nc(-c2cc(C(=O)N(C)Cc3cnn(CC(F)(F)F)c3C)c3cc(Cl)ccc3n2)ccc1NCCN(C)C [Compound 597] | 78.7 |  | 
30.4 | 714 | 26.2 |  | CCn1ncc(CN(C)C(=O)c2nc(-c3cc(C)cc(NC4CNC(=O)C4)c3)nc3ccc(Cl)cc23)c1C (stereo not drawn) [Compound 539] | 1340 |  | 
51.6 | 145 | 59.9 |  | CCc1nc(-c2cc(C(=O)N(C)Cc3cnn(CC)c3C)c3cc(COC)ccc3n2)ccc1NCCNC [Compound 595] | 99.1 |  | 
62000 | 12000 | 35000 |  | CCn1ncc(CN(C)C(=O)c2nc(-c3cc(C(=O)NCCCN4CCCC4)n(Cc4ccc(OC)cc4)n3)nc3ccc(Cl)cc23)c1C [Compound 163] | 2700 |  | 
2.5 |  | 2.5 | 78 | CCn1ncc(CN(C)C(=O)c2nc(-c3cc4c(N)n[nH]c4cc3C)nc3ccc(Cl)cc23)c1C [Compound 418] |  |  | 62
21 | 600 | 7 |  | CCn1ncc(CN(C)C(=O)c2nc(-c3cc(C)cc(NC4CCNCC4)c3)nc3ccc(Cl)cc23)c1C [Compound 55] | 240 |  | 
141 | 2070 | 47.6 |  | CCc1ncc(CN(C)C(=O)c2cc(-c3ccc(OCC(O)CNC)c(C)n3)nc3ccc(COC)cc23)n1C (stereo not drawn) [Compound 477] | 1280 |  | 
410 | 720 | 790 |  | CCn1ncc(CN(C)C(=O)c2nc(-c3cc(C(=O)NC4CCN(C)CC4)n(C)n3)nc3ccc(Cl)cc23)c1C [Compound 65] | 740 |  | 

SMILES | IC50 (CREBBP (1084-1701)) [nM] | IC50 [1] [nM] | IC50 (EP300 (P300(1048-1664))) [nM] | IC50 ([1]; HB-CLS-2 cells) [nM] | IC50 (647V cells; Homo sapiens, 647-V) [nM] | IC50 (647V cells) [nM] | IC50 (647V cells; [2]) [nM]
CCn1ncc(CN(C)C(=O)c2cc(-c3ccc(OCC(O)CNC)c(C)n3)nc3ccc(Cl)cc23)c1C (stereo not drawn) [Compound 435] | 36.8 | 163 | 15.8 |  |  | 102 | 
